Tests used:
Rattus norvegicus [1] = species: Rattus norvegicus; assay: DrugMatrix - Regimen: Daily Repeat; type: toxicity, organism-based, Sprague-Dawley; set-up: regimen Daily Repeat, gender Male, age 6-8 weeks; settings: in vivo, po, 60 mg/kg, route oral GAVAGE, dose level High, vehicle 100 % WATER
Rattus norvegicus [2] = species: Rattus norvegicus; type: toxicity, organism-based, Sprague-Dawley; settings: in vivo, po, 60 mg/kg, 24 h, route oral GAVAGE, dose level High, time 1 day, vehicle 100 % WATER
Description: DrugMatrix - Regimen: Single

[3] = […], tissue Plasma, time 14 day

Compound: Nc1ccc(O)c(N)c1 [2,4-DIAMINOPHENOL]
- URIC ACID (Rattus norvegicus [1]; 120 h, tissue Plasma, time 5 day): 0.67 mg/dL
- ABSOLUTE BASOPHIL (Rattus norvegicus [1]; […], tissue Blood, time 14 day): 0 CELLS/uL
- ABSOLUTE EOSINOPHIL (Rattus norvegicus [1]; […], tissue Blood, time 14 day): 124 CELLS/uL
- ABSOLUTE LYMPHOCYTE (Rattus norvegicus [1]; […], tissue Blood, time 14 day): 13347.2 CELLS/uL
- ABSOLUTE MONOCYTE (Rattus norvegicus [1]; […], tissue Blood, time 14 day): 291 CELLS/uL
- ABSOLUTE SEGMENTED NEUTROPHIL (Rattus norvegicus [1]; […], tissue Blood, time 14 day): 2297.8 CELLS/uL
- BASOPHIL (Rattus norvegicus [1]; […], tissue Blood, time 14 day): 0%
- EOSINOPHIL (Rattus norvegicus [1]; […], tissue Blood, time 14 day): 0.8%
- ERYTHROCYTE COUNT (Rattus norvegicus [1]; […], tissue Blood, time 14 day): 5.92 x10E6/uL
- HEMATOCRIT (Rattus norvegicus [1]; […], tissue Blood, time 14 day): 34.56%
- HEMOGLOBIN (Rattus norvegicus [1]; […], tissue Blood, time 14 day): 13 G/DL
- LEUKOCYTE COUNT (Rattus norvegicus [1]; […], tissue Blood, time 14 day): 16.06 x10E3/uL
- LYMPHOCYTE (Rattus norvegicus [1]; […], tissue Blood, time 14 day): 83%
- MEAN CORPUSCULAR HEMOGLOBIN (Rattus norvegicus [1]; […], tissue Blood, time 14 day): 22.04 pg
- MEAN CORPUSCULAR HEMOGLOBIN CONCENTRATION (Rattus norvegicus [1]; […], tissue Blood, time 14 day): 37.6 G/DL
- MEAN CORPUSCULAR VOLUME (Rattus norvegicus [1]; […], tissue Blood, time 14 day): 58.5 fL
- MONOCYTE (Rattus norvegicus [1]; […], tissue Blood, time 14 day): 1.8%
- NEUTROPHIL (Rattus norvegicus [1]; […], tissue Blood, time 14 day): 14.4%
- NUCLEATED RED BLOOD CELLS (Rattus norvegicus [1]; […], tissue Blood, time 14 day): 0 /100WBC
- PLATELET COUNT (Rattus norvegicus [1]; […], tissue Blood, time 14 day): 944.4 x10E3/uL
- ALANINE AMINOTRANSFERASE (Rattus norvegicus [1]; [3]): 40.4 u/L
- ALBUMIN (Rattus norvegicus [1]; [3]): 4.32 G/DL
- ALKALINE PHOSPHATASE (Rattus norvegicus [1]; [3]): 271.4 u/L
- ASPARTATE AMINOTRANSFERASE (Rattus norvegicus [1]; [3]): 76.6 u/L
- BLOOD UREA NITROGEN (Rattus norvegicus [1]; [3]): 13.6 mg/dL
- CARBON DIOXIDE (Rattus norvegicus [1]; [3]): 30.4 mmol/L
- CHLORIDE (Rattus norvegicus [1]; [3]): 101.8 MEQ/L
- CHOLESTEROL (Rattus norvegicus [1]; [3]): 67.4 mg/dL
- CREATININE (Rattus norvegicus [1]; [3]): 0.15 mg/dL
- GLUCOSE (Rattus norvegicus [1]; [3]): 150 mg/dL
- LACTATE DEHYDROGENASE (Rattus norvegicus [1]; [3]): 271.8 u/L
- LIPASE (Rattus norvegicus [1]; [3]): 7.8 u/L
- PHOSPHORUS (Rattus norvegicus [1]; [3]): 13.62 mg/dL
- POTASSIUM (Rattus norvegicus [1]; [3]): 6.71 MEQ/L
- SODIUM (Rattus norvegicus [1]; [3]): 145.8 MEQ/L
- TOTAL BILIRUBIN (Rattus norvegicus [1]; [3]): 0.14 mg/dL
- TOTAL PROTEIN (Rattus norvegicus [1]; [3]): 6.06 G/DL
- URIC ACID (Rattus norvegicus [1]; [3]): 1.14 mg/dL
- ABSOLUTE EOSINOPHIL (Rattus norvegicus [2]; tissue Blood): 80.67 CELLS/uL
- ABSOLUTE LYMPHOCYTE (Rattus norvegicus [2]; tissue Blood): 10585.67 CELLS/uL
- ABSOLUTE MONOCYTE (Rattus norvegicus [2]; tissue Blood): 630.67 CELLS/uL
- ABSOLUTE SEGMENTED NEUTROPHIL (Rattus norvegicus [2]; tissue Blood): 1169.67 CELLS/uL
- BASOPHIL (Rattus norvegicus [2]; tissue Blood): 0%
- EOSINOPHIL (Rattus norvegicus [2]; tissue Blood): 0.67%
- ERYTHROCYTE COUNT (Rattus norvegicus [2]; tissue Blood): 4.98 x10E6/uL
- HEMATOCRIT (Rattus norvegicus [2]; tissue Blood): 31.37%
- HEMOGLOBIN (Rattus norvegicus [2]; tissue Blood): 11.7 G/DL
- LEUKOCYTE COUNT (Rattus norvegicus [2]; tissue Blood): 12.47 x10E3/uL
- LYMPHOCYTE (Rattus norvegicus [2]; tissue Blood): 85%
- MEAN CORPUSCULAR HEMOGLOBIN (Rattus norvegicus [2]; tissue Blood): 23.63 pg
- MEAN CORPUSCULAR HEMOGLOBIN CONCENTRATION (Rattus norvegicus [2]; tissue Blood): 37.37 G/DL
- MEAN CORPUSCULAR VOLUME (Rattus norvegicus [2]; tissue Blood): 63.17 fL
- MONOCYTE (Rattus norvegicus [2]; tissue Blood): 5%
- NEUTROPHIL (Rattus norvegicus [2]; tissue Blood): 9.33%
- NUCLEATED RED BLOOD CELLS (Rattus norvegicus [2]; tissue Blood): 0 /100WBC
- PLATELET COUNT (Rattus norvegicus [2]; tissue Blood): 963 x10E3/uL
- ALANINE AMINOTRANSFERASE (Rattus norvegicus [2]; tissue Plasma): 60.67 u/L
- ALBUMIN (Rattus norvegicus [2]; tissue Plasma): 4.43 G/DL
- ALKALINE PHOSPHATASE (Rattus norvegicus [2]; tissue Plasma): 366.33 u/L
- ASPARTATE AMINOTRANSFERASE (Rattus norvegicus [2]; tissue Plasma): 78.33 u/L
- BLOOD UREA NITROGEN (Rattus norvegicus [2]; tissue Plasma): 12 mg/dL
- CARBON DIOXIDE (Rattus norvegicus [2]; tissue Plasma): 27 mmol/L
- CHLORIDE (Rattus norvegicus [2]; tissue Plasma): 103.33 MEQ/L
- CHOLESTEROL (Rattus norvegicus [2]; tissue Plasma): 77.33 mg/dL
- CREATININE (Rattus norvegicus [2]; tissue Plasma): 0.13 mg/dL
- GLUCOSE (Rattus norvegicus [2]; tissue Plasma): 149 mg/dL
- LACTATE DEHYDROGENASE (Rattus norvegicus [2]; tissue Plasma): 159 u/L
- LIPASE (Rattus norvegicus [2]; tissue Plasma): 8 u/L
- PHOSPHORUS (Rattus norvegicus [2]; tissue Plasma): 12.77 mg/dL
- POTASSIUM (Rattus norvegicus [2]; tissue Plasma): 6.85 MEQ/L
- SODIUM (Rattus norvegicus [2]; tissue Plasma): 145.33 MEQ/L
- TOTAL BILIRUBIN (Rattus norvegicus [2]; tissue Plasma): 0.1 mg/dL
- TOTAL PROTEIN (Rattus norvegicus [2]; tissue Plasma): 6 G/DL
- URIC ACID (Rattus norvegicus [2]; tissue Plasma): 1.37 mg/dL

From ChEMBL document CHEMBL3885881, “DrugMatrix”
